Measured values as given in the supplement of paper PMC10307832.

Key:
Assay in all cases: relative viability (nuclei count vs DMSO), 5 days (fraction); higher = more cells survive
[1] = compound: Cc1ccc(NC(=O)c2ccc(CN3CCN(C)CC3)cc2)cc1Nc1nc(-c2cccnc2)cs1 [Masitinib] + C[C@@H](Oc1cc(-c2cnn(C3CCNCC3)c2)cnc1N)c1c(Cl)ccc(F)c1Cl [Crizotinib] (partner 1 µM)
How it was run: (§1)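 Lung cancer cell lines were pin-tool dosed in 1536-well plates on the day after seeding, with either a lone drug or a fixed anchor-drug dose plus five library-drug doses (not always all listed) in √10 steps. Nuclei were counted on 4× images after 5 days. Relative viability is the ratio of treated-well to vehicle-well nuclei counts, with each value a median of duplicate plates.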

[2] = compound: Cc1ccc(NC(=O)c2ccc(CN3CCN(C)CC3)cc2)cc1Nc1nc(-c2cccnc2)cs1 [Masitinib] + Nc1ncn([C@H]2C[C@H](O)[C@@H](CO)O2)c(=O)n1 [Decitabine] (partner 2 µM)
How it was run: as §1

[3] = compound: CC1=CC(=CC=C1)NC2=NC(=CS2)C3=CC=NC=C3 + NC(=O)Nc1cc(-c2cccc(F)c2)sc1C(=O)N[C@H]1CCCNC1 [AZD7762] (partner 0.2 µM)
How it was run: as §1

[4] = compound: CC1=CC(=CC=C1)NC2=NC(=CS2)C3=CC=NC=C3 + CC(=O)c1c(C)c2cnc(Nc3ccc(N4CCNCC4)cn3)nc2n(C2CCCC2)c1=O [Palbociclib] (partner 0.5 µM)
How it was run: as §1

Row | Cell Line | relative viability ([1]; first compound 0.01 µM) | relative viability ([1]; first compound 0.03162 µM) | relative viability ([1]; first compound 0.1 µM) | relative viability ([1]; first compound 0.3162 µM) | relative viability ([1]; first compound 1 µM) | relative viability ([2]; first compound 0.01 µM) | relative viability ([2]; first compound 0.03162 µM) | relative viability ([2]; first compound 0.1 µM) | relative viability ([2]; first compound 0.3162 µM) | relative viability ([2]; first compound 1 µM) | relative viability ([3]; first compound 0.08 µM) | relative viability ([3]; first compound 0.253 µM) | relative viability ([3]; first compound 0.8 µM) | relative viability ([3]; first compound 2.53 µM) | relative viability ([3]; first compound 8 µM) | relative viability ([4]; first compound 0.08 µM) | relative viability ([4]; first compound 0.253 µM) | relative viability ([4]; first compound 0.8 µM) | relative viability ([4]; first compound 2.53 µM) | relative viability ([4]; first compound 8 µM)
1 | NCI-H2085 | 0.784 | 0.775 | 0.868 | 0.985 | 0.853 | 0.55 | 0.522 | 0.511 | 0.536 | 0.509 | 0.904 | 1.01 | 0.847 | 0.993 | 0.575 | 0.464 | 0.463 | 0.475 | 0.47 | 0.349
2 | NCI-H2347 | 0.731 | 0.759 | 0.891 | 0.707 | 0.688 | 0.598 | 0.529 | 0.614 | 0.669 | 0.652 | 0.613 | 0.731 | 0.699 | 0.778 | 0.72 | 0.392 | 0.417 | 0.413 | 0.444 | 0.436
3 | NCI-H2170 | 1.38 | 1.18 | 1.37 | 1.3 | 1.11 | 0.467 | 0.473 | 0.509 | 0.488 | 0.449 | 0.776 | 0.829 | 0.706 | 0.749 | 0.521 | 0.358 | 0.403 | 0.358 | 0.435 | 0.299
4 | NCI-H1944 |  | 1.15 | 0.59 | 0.988 | 1.1 |  | 0.398 |  | 0.423 | 0.384 | 0.401 | 0.552 | 0.706 | 0.527 | 0.47 | 0.288 | 0.307 | 0.298 | 0.299 | 0.292
5 | EKVX |  | 0.789 | 0.79 | 0.825 | 0.922 | 0.342 | 0.31 | 0.35 |  | 0.541 | 0.63 | 0.703 |  | 0.764 | 0.524 | 0.36 | 0.384 |  | 0.39 | 0.268
6 | EPLC-272H | 0.881 | 0.81 | 0.803 | 0.842 | 0.871 | 0.369 | 0.344 | 0.358 | 0.388 | 0.313 | 0.201 | 0.153 | 0.445 |  | 0.215 | 0.309 | 0.315 | 0.372 |  | 0.332
7 | NCI-H3122 | 0.26 | 0.252 | 0.306 | 0.217 | 0.253 | 0.528 | 0.484 | 0.525 | 0.467 | 0.451 | 0.946 | 1.01 | 1.04 | 1.04 | 0.96 | 0.185 | 0.193 | 0.384 | 0.253 | 0.193
8 | NCI-H1792 | 0.866 | 0.449 | 0.993 | 0.829 | 1.05 | 0.621 | 0.443 | 0.51 | 0.438 | 0.472 | 0.459 | 0.529 | 0.628 | 0.755 | 0.524 | 0.596 |  | 0.614 | 0.624 | 0.672
9 | HCC-78 | 0.356 | 0.445 | 0.334 | 0.288 | 0.293 | 0.634 | 0.637 | 0.605 | 0.693 | 0.615 | 0.674 | 0.409 | 0.613 | 0.449 | 0.658 | 0.367 | 0.438 | 0.4 | 0.447 | 0.511
10 | LOU-NH91 | 0.706 | 0.683 | 0.768 | 0.73 | 0.712 | 0.797 | 0.754 | 0.792 | 0.785 | 0.783 | 0.615 | 0.631 | 0.714 | 0.761 | 0.468 | 0.571 | 0.572 | 0.547 | 0.54 | 0.545
11 | NCI-H322M | 0.745 | 0.956 | 1.02 | 0.9 | 0.873 | 0.626 | 0.733 | 0.612 | 0.719 | 0.706 | 0.46 | 0.549 | 0.551 | 0.553 | 0.455 | 0.463 | 0.47 | 0.565 | 0.574 | 0.563
12 | HCC-827 | 0.725 | 0.961 | 0.95 | 0.893 | 0.895 | 0.296 | 0.342 | 0.295 | 0.27 | 0.312 | 0.352 | 0.418 | 0.53 | 0.216 | 0.28 | 0.495 | 0.435 | 0.431 | 0.518 | 0.37
13 | NCI-H1993 | 0.942 |  | 0.883 | 0.755 | 0.718 | 0.49 | 0.545 | 0.534 | 0.459 | 0.496 | 0.688 | 0.706 | 0.641 | 0.682 | 0.749 | 0.594 | 0.604 | 0.476 | 0.554 | 0.533
14 | NCI-H1734 | 0.668 | 0.777 | 0.862 | 0.503 | 0.615 | 0.539 | 0.485 | 0.546 | 0.522 | 0.483 | 0.559 | 0.554 | 0.528 | 0.647 | 0.558 | 0.352 | 0.315 | 0.344 | 0.347 | 0.359
15 | NCI-H1666 | 0.91 | 1.17 | 1.03 | 0.744 | 0.832 | 0.698 | 0.665 | 0.703 | 0.626 | 0.647 | 0.766 | 0.715 | 0.607 | 0.548 | 0.68 | 0.664 | 0.631 | 0.546 | 0.584 | 0.617
16 | NCI-H460 | 0.748 | 0.763 | 1.03 | 0.647 | 0.911 | 0.307 | 0.378 | 0.45 | 0.455 | 0.462 | 0.555 | 0.529 | 0.625 | 0.622 | 0.497 | 0.0801 | 0.0813 | 0.0708 | 0.0785 | 0.086
17 | LCLC-103H | 0.783 | 1.08 | 0.891 | 0.969 | 1.03 |  | 0.723 | 0.735 | 0.748 | 0.711 | 0.73 | 0.755 | 0.725 | 0.74 | 0.651 | 0.402 | 0.445 | 0.477 | 0.406 | 0.507
18 | LCLC-97TM1 | 0.27 | 0.31 | 0.394 | 0.288 | 0.238 | 0.273 | 0.233 | 0.281 | 0.167 | 0.225 | 0.338 | 0.292 | 0.379 | 0.246 | 0.376 | 0.172 | 0.216 | 0.206 | 0.217 | 0.276
19 | NCI-H838 | 0.95 | 0.71 | 0.828 | 0.651 | 0.818 | 0.446 | 0.475 | 0.432 | 0.445 | 0.44 | 0.812 | 0.924 | 0.85 | 0.928 | 0.829 | 0.22 | 0.205 | 0.207 | 0.217 | 0.179
20 | NCI-H1437 | 0.896 | 0.875 | 0.923 | 1.04 | 0.94 | 0.559 | 0.565 | 0.582 | 0.524 | 0.527 | 1.07 | 1.11 | 1.1 | 1.12 | 1.11 | 0.316 | 0.331 | 0.301 | 0.23 | 0.289
21 | HOP-62 | 0.659 | 0.88 | 1.09 | 1.08 | 0.898 | 0.22 | 0.222 | 0.23 | 0.201 | 0.212 | 0.629 | 0.598 | 0.619 | 0.861 | 0.578 | 0.454 | 0.446 | 0.497 | 0.447 | 0.571
22 | NCI-H2087 | 0.669 | 0.913 | 0.899 | 0.891 | 0.951 | 0.25 | 0.247 | 0.32 | 0.223 | 0.254 | 1.41 | 1.29 | 1.14 | 1.43 | 1.17 | 0.186 | 0.245 | 0.227 | 0.238 | 0.221
